From ChEMBL document CHEMBL3991601, “The target landscape of clinical kinase drugs” (Science, 2017)
Active and inactive are the calls of the source.

Key:
[1] = biological target: Mitogen-activated protein kinase 14 (Homo sapiens, UniProt Q16539)
[2] = biological target: Dual specificity testis-specific protein kinase 2 (Homo sapiens, UniProt Q96S53)
[3] = biological target: High affinity nerve growth factor receptor (Homo sapiens, UniProt P04629)
[4] = biological target: T1, Cyclin-dependent kinase-like 5 (Homo sapiens, UniProt O76039)
T1 sequence (O76039 whole entry): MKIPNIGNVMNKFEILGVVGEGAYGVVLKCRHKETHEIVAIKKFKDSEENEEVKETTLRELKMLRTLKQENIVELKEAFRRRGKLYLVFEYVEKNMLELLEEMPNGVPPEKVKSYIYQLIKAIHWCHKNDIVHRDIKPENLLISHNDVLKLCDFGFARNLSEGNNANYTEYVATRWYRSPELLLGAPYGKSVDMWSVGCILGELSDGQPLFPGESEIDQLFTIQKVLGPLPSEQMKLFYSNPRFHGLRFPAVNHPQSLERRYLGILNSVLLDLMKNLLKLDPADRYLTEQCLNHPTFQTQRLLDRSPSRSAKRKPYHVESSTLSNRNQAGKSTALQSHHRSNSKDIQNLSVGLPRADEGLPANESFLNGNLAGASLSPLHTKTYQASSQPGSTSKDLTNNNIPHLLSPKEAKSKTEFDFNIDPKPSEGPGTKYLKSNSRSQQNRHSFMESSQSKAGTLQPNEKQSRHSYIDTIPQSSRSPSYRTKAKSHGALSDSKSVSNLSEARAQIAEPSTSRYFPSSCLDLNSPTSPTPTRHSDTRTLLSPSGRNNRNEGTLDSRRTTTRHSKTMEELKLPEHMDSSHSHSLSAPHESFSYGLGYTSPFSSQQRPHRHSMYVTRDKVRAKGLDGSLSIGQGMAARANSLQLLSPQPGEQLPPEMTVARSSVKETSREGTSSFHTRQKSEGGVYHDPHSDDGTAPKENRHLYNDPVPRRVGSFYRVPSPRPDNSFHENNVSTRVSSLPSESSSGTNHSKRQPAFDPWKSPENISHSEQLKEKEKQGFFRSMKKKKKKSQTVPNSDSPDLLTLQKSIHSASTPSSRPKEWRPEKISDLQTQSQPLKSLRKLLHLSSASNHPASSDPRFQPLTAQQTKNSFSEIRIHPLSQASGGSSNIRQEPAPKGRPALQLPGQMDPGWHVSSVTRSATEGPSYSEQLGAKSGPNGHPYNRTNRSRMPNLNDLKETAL

[5] = biological target: Phosphatidylethanolamine-binding protein 1 (Homo sapiens, UniProt P30086)
[6] = biological target: T2, Mitogen-activated protein kinase kinase kinase 3 (Homo sapiens, UniProt Q99759)
T2 sequence (Q99759 whole entry): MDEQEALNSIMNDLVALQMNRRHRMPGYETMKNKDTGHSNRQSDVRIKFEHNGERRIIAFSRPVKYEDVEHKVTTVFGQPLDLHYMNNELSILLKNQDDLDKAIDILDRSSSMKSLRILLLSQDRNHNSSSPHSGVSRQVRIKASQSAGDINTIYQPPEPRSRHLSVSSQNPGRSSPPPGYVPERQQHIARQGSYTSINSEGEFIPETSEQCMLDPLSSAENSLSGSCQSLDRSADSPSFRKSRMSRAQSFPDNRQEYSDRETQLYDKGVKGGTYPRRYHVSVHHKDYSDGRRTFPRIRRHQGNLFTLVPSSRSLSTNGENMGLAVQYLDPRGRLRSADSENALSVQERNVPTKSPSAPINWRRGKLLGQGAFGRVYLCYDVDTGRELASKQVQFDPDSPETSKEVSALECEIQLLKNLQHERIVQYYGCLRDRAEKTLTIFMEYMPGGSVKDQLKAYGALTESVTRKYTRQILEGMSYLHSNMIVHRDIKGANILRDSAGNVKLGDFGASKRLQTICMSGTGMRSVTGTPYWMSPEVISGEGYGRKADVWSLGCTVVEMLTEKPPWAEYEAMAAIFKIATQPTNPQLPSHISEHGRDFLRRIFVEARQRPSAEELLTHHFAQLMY

[7] = biological target: Serine/threonine-protein kinase MRCK gamma (Homo sapiens, UniProt Q6DT37)
[8] = biological target: Proto-oncogene tyrosine-protein kinase receptor Ret (Homo sapiens, UniProt P07949)
[9] = biological target: Rho-associated protein kinase 1 (Homo sapiens, UniProt Q13464)
[10] = biological target: Bone morphogenetic protein receptor type-1A (Homo sapiens, UniProt P36894)
[11] = biological target: Chromodomain-helicase-DNA-binding protein 4 (Homo sapiens, UniProt Q14839)
[12] = biological target: Dual specificity protein kinase CLK2 (Homo sapiens, UniProt P49760)
[13] = biological target: Serine/threonine-protein kinase pim-2 (Homo sapiens, UniProt Q9P1W9)
[14] = biological target: Hepatocyte growth factor receptor (Homo sapiens, UniProt P08581)
[15] = biological target: Serine/threonine-protein kinase 24 (Homo sapiens, UniProt Q9Y6E0)
[16] = biological target: DNA topoisomerase 2-alpha (Homo sapiens, UniProt P11388)
[17] = biological target: Epidermal growth factor receptor (Homo sapiens, UniProt P00533)
[18] = biological target: Serine/threonine-protein kinase ATR (Homo sapiens, UniProt Q13535)
[19] = biological target: PAS domain-containing serine/threonine-protein kinase (Homo sapiens, UniProt Q96RG2)
Note: in the data inactive means no Kd found up to 30 µM.

Dual specificity protein kinase CLK2, sequence (P49760 whole entry): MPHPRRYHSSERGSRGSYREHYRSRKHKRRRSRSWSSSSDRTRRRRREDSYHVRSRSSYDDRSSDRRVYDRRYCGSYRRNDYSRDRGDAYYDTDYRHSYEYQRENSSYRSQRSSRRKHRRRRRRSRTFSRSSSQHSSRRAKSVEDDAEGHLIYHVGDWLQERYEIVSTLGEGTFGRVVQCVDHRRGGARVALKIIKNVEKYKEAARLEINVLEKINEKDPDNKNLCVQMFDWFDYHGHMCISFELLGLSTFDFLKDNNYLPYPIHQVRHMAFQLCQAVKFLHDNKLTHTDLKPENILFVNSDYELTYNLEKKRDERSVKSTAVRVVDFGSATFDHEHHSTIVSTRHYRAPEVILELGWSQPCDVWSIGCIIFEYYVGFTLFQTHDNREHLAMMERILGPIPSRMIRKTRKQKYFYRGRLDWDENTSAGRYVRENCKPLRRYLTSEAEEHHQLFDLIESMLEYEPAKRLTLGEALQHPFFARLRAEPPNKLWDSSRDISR
Serine/threonine-protein kinase ATR, sequence (Q13535 whole entry, the tested form may be a part): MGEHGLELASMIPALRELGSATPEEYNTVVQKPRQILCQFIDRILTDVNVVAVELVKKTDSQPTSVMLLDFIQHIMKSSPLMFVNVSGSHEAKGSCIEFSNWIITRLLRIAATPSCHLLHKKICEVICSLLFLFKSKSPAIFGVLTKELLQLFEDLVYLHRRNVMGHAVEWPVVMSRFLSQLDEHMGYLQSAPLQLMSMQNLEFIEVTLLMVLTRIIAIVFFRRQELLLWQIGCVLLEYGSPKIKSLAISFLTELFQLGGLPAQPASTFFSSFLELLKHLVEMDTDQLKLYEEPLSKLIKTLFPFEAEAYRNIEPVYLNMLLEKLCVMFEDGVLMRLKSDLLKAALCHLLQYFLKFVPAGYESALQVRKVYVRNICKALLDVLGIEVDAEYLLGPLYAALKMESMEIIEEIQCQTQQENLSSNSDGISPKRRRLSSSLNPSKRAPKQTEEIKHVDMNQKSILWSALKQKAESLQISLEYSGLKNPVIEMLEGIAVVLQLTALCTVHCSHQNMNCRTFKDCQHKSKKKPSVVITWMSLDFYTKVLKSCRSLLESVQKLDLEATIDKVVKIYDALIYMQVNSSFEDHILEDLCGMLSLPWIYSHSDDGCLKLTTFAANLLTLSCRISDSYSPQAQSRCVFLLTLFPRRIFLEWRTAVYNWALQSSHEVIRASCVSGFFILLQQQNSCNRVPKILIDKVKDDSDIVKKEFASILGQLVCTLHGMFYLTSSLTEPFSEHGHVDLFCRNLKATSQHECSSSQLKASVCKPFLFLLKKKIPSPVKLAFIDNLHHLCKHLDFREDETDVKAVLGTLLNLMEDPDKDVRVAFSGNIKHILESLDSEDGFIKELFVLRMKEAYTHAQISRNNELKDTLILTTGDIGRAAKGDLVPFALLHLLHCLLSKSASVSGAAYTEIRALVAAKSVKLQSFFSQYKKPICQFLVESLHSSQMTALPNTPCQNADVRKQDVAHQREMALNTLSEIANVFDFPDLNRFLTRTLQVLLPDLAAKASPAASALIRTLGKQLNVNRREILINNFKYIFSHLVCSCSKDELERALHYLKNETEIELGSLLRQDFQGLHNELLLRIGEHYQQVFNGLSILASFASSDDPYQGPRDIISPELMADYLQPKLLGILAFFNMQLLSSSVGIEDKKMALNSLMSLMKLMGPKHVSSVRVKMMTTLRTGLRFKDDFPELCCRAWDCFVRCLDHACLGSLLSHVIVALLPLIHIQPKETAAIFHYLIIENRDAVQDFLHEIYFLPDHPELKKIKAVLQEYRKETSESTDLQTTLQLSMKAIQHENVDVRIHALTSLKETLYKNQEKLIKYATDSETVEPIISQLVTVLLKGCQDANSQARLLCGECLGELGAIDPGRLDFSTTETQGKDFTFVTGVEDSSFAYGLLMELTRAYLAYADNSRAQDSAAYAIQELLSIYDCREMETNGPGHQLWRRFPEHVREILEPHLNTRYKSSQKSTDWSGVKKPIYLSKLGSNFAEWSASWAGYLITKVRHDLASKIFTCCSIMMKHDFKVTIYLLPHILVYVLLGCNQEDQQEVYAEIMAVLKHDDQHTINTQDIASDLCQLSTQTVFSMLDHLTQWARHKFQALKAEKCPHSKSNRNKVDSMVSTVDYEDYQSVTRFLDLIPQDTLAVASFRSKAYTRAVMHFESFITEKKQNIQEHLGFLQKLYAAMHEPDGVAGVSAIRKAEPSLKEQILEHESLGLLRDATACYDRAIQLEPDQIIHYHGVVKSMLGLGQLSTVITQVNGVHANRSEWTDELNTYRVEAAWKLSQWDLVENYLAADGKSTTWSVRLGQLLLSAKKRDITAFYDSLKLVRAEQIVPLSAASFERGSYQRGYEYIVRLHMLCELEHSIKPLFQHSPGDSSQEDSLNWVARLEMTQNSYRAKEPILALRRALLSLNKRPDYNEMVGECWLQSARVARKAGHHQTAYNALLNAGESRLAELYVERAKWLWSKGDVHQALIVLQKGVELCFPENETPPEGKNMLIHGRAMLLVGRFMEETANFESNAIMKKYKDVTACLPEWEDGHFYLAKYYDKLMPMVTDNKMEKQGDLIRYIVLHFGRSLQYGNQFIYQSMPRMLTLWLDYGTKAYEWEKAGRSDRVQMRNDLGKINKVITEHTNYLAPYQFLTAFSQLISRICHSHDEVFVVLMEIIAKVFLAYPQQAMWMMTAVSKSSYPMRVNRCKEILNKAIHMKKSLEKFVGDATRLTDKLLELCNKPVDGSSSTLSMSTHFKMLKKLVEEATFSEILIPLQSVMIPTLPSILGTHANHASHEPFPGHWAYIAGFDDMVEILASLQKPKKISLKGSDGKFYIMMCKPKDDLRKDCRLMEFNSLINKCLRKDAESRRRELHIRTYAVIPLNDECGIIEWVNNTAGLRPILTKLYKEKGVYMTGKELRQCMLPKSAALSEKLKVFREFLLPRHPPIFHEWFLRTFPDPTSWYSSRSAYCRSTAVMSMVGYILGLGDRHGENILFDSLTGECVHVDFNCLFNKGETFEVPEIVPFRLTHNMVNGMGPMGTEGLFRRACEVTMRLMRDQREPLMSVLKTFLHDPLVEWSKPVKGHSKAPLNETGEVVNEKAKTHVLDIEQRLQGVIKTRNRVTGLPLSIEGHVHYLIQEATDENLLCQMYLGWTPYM
Hepatocyte growth factor receptor, sequence (P08581 whole entry): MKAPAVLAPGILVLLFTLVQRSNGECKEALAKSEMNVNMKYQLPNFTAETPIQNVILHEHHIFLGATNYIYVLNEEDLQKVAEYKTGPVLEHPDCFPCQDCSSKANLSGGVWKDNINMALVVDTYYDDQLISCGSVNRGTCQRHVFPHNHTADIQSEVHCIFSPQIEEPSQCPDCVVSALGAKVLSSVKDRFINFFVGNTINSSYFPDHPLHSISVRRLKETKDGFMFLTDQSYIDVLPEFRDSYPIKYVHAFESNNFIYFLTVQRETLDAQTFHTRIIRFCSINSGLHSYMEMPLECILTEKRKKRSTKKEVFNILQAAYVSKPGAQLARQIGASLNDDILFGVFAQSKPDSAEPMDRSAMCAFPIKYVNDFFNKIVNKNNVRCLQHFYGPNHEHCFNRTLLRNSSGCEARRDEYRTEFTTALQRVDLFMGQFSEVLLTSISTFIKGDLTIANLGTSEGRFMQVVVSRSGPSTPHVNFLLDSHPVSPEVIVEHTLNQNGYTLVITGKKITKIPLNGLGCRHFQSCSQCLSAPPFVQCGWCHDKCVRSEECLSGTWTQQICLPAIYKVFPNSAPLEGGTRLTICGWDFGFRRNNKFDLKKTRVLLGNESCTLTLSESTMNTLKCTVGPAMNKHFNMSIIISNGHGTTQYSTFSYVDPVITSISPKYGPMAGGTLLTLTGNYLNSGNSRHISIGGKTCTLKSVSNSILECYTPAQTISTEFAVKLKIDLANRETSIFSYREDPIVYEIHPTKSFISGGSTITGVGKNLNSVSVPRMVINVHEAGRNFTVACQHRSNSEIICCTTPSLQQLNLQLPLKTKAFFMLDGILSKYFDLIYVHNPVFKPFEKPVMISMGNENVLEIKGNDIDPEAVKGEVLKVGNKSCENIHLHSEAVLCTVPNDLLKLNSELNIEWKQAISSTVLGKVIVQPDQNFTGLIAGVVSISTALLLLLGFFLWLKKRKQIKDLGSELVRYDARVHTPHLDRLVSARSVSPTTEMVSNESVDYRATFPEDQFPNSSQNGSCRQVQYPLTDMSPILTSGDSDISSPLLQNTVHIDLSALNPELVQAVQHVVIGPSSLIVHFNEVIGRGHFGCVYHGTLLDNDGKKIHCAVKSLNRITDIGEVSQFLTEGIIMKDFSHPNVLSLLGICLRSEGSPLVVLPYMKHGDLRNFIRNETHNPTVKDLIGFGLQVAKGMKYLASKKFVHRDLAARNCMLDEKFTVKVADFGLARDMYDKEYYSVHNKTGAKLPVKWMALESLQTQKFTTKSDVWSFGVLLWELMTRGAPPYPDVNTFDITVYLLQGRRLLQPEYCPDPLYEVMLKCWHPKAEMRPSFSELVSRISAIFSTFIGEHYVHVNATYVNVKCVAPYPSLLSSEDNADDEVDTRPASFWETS
Serine/threonine-protein kinase 24, sequence (Q9Y6E0 whole entry): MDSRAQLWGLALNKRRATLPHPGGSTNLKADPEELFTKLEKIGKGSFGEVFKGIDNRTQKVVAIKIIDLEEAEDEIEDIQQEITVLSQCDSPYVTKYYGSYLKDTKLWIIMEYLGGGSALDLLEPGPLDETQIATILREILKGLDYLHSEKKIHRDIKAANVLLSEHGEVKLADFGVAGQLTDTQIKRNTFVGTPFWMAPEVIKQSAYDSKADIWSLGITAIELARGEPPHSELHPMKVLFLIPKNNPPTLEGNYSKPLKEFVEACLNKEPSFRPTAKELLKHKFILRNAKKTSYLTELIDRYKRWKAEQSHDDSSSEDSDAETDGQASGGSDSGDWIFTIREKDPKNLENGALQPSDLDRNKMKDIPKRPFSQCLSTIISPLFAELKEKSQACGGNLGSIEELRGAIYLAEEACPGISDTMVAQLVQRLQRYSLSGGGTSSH

| SMILES | Kd [2] | Kd [3] | Kd [4] | Kd [6] | Kd [7] | Kd [8] | Kd [10] | Kd [11] | Kd [12] | Kd [13] | Kd [14] | Kd [15] | Kd [16] | Kd [17] | Kd [18] | Kd [1] | Kd [5] | Kd [9] | Kd [19] |
| --- | --- | --- | --- | --- | --- | --- | --- | --- | --- | --- | --- | --- | --- | --- | --- | --- | --- | --- | --- |
| COc1cc2ncnc(Nc3ccc(F)c(Cl)c3)c2cc1NC(=O)/C=C/CN1CCCCC1 [DACOMITINIB ANHYDROUS] | > 30 µM (inactive) | > 30 µM (inactive) | > 30 µM (inactive) | > 30 µM (inactive) | > 30 µM (inactive) | > 30 µM (inactive) | > 30 µM (inactive) | > 30 µM (inactive) | > 30 µM (inactive) | > 30 µM (inactive) | > 30 µM (inactive) |  |  |  |  | > 30 µM (inactive) | > 30 µM (inactive) | > 30 µM (inactive) |  |
| O=C(O)c1ccc2c(c1)nc(Nc1cccc(Cl)c1)c1ccncc12 [SILMITASERTIB] | > 30 µM (inactive) | > 30 µM (inactive) | > 30 µM (inactive) | > 30 µM (inactive) | > 30 µM (inactive) | > 30 µM (inactive) | > 30 µM (inactive) | > 30 µM (inactive) |  |  | > 30 µM (inactive) | > 30 µM (inactive) |  | > 30 µM (inactive) | > 30 µM (inactive) | > 30 µM (inactive) |  |  |  |
| CN1CCN(c2nc(C3=C(c4c[nH]c5ccccc45)C(=O)NC3=O)c3ccccc3n2)CC1 [SOTRASTAURIN] |  | > 30 µM (inactive) | > 30 µM (inactive) | > 30 µM (inactive) | > 30 µM (inactive) | > 30 µM (inactive) | > 30 µM (inactive) | > 30 µM (inactive) | 0.121 µM | > 30 µM (inactive) | > 30 µM (inactive) | > 30 µM (inactive) | > 30 µM (inactive) |  | > 30 µM (inactive) | > 30 µM (inactive) |  | > 30 µM (inactive) |  |
| O=c1[nH]c([C@@H]2CCCN2)nc2c1oc1ccc(Cl)cc12 |  |  |  | > 30 µM (inactive) | > 30 µM (inactive) | > 30 µM (inactive) | > 30 µM (inactive) | > 30 µM (inactive) |  | > 30 µM (inactive) | > 30 µM (inactive) | > 30 µM (inactive) | > 30 µM (inactive) | > 30 µM (inactive) | > 30 µM (inactive) |  | > 30 µM (inactive) |  |  |
| Cn1cc(-c2[nH]c3cc(NC(=O)[C@H](N)C4CCCCC4)cc4c3c2C=NNC4=O)cn1 | > 30 µM (inactive) | > 30 µM (inactive) | > 30 µM (inactive) | > 30 µM (inactive) | > 30 µM (inactive) | 0.01 µM (active) | 0.814 µM (active) | > 30 µM (inactive) | > 30 µM (inactive) |  | > 30 µM (inactive) | > 30 µM (inactive) | > 30 µM (inactive) |  | > 30 µM (inactive) | > 30 µM (inactive) | > 30 µM (inactive) | > 30 µM (inactive) | > 30 µM (inactive) |
| COCCN1CCN(Cc2ccc(-c3n[nH]c4c3C(=O)c3c(NC(=O)NN5CCOCC5)cccc3-4)cc2)CC1 [RGB-286638] |  | > 30 µM (inactive) |  | > 30 µM (inactive) | > 30 µM (inactive) | > 30 µM (inactive) | > 30 µM (inactive) | > 30 µM (inactive) | 0.018 µM (active) | 0.042 µM (active) | > 30 µM (inactive) |  | > 30 µM (inactive) | > 30 µM (inactive) | > 30 µM (inactive) | > 30 µM (inactive) | > 30 µM (inactive) | > 30 µM (inactive) |  |
| C=CC(=O)Nc1cccc(Nc2nc(Nc3ccc(N4CCN(C(C)=O)CC4)cc3OC)ncc2C(F)(F)F)c1 [ROCILETINIB] |  | > 30 µM (inactive) |  | > 30 µM (inactive) | > 30 µM (inactive) | > 30 µM (inactive) | > 30 µM (inactive) | > 30 µM (inactive) | > 30 µM (inactive) | > 30 µM (inactive) |  |  | > 30 µM (inactive) |  | > 30 µM (inactive) | > 30 µM (inactive) | > 30 µM (inactive) | > 30 µM (inactive) |  |
| N#CCNC(=O)c1ccc(-c2ccnc(Nc3ccc(N4CCOCC4)cc3)n2)cc1 [MOMELOTINIB] |  | > 30 µM (inactive) | > 30 µM (inactive) | > 30 µM (inactive) | > 30 µM (inactive) |  | > 30 µM (inactive) |  | > 30 µM (inactive) | > 30 µM (inactive) |  |  | > 30 µM (inactive) |  |  | > 30 µM (inactive) | > 30 µM (inactive) | 1.36 µM (active) | > 30 µM (inactive) |
| Cc1c(NC(=O)OC[C@@H]2COCCN2)cn2ncnc(Nc3ccc4c(cnn4Cc4cccc(F)c4)c3)c12 [AC-480] |  | > 30 µM (inactive) |  | > 30 µM (inactive) | > 30 µM (inactive) | > 30 µM (inactive) | > 30 µM (inactive) | > 30 µM (inactive) |  | > 30 µM (inactive) | > 30 µM (inactive) | > 30 µM (inactive) |  | 0.003 µM (active) |  | > 30 µM (inactive) | > 30 µM (inactive) | > 30 µM (inactive) | > 30 µM (inactive) |
| FC(F)(F)c1ccc(CNc2ccc(Cc3c[nH]c4ncc(Cl)cc34)cn2)cn1 [PEXIDARTINIB] |  | > 30 µM (inactive) |  | > 30 µM (inactive) | > 30 µM (inactive) | > 30 µM (inactive) | > 30 µM (inactive) | > 30 µM (inactive) | > 30 µM (inactive) | > 30 µM (inactive) | > 30 µM (inactive) | > 30 µM (inactive) | > 30 µM (inactive) | > 30 µM (inactive) |  | > 30 µM (inactive) |  | > 30 µM (inactive) | > 30 µM (inactive) |

Continued, in another order:

| Kd [2] | Kd [3] | Kd [4] | Kd [6] | Kd [7] | Kd [8] | Kd [10] | Kd [11] | Kd [12] | Kd [13] | Kd [14] | Kd [15] | Kd [16] | Kd [17] | Kd [18] | SMILES | Kd [1] | Kd [5] | Kd [9] | Kd [19] |
| --- | --- | --- | --- | --- | --- | --- | --- | --- | --- | --- | --- | --- | --- | --- | --- | --- | --- | --- | --- |
| > 30 µM (inactive) | > 30 µM (inactive) | > 30 µM (inactive) | > 30 µM (inactive) | > 30 µM (inactive) |  | > 30 µM (inactive) | > 30 µM (inactive) | > 30 µM (inactive) | > 30 µM (inactive) | > 30 µM (inactive) | > 30 µM (inactive) | > 30 µM (inactive) | > 30 µM (inactive) |  | Cc1cc(C(=O)Nc2cc(Oc3ccc4nc(NC(=O)C5CC5)cn4n3)ccc2C)n(C)n1 [TAK-593] | > 30 µM (inactive) |  | > 30 µM (inactive) |  |
| > 30 µM (inactive) | > 30 µM (inactive) | > 30 µM (inactive) | > 30 µM (inactive) |  | > 30 µM (inactive) | > 30 µM (inactive) |  | > 30 µM (inactive) |  | > 30 µM (inactive) | > 30 µM (inactive) | > 30 µM (inactive) | > 30 µM (inactive) | > 30 µM (inactive) | NC(=O)c1ccc(N(C(N)=O)c2c(F)cccc2F)nc1-c1ccc(F)cc1F [VX-702] |  | > 30 µM (inactive) | > 30 µM (inactive) | > 30 µM (inactive) |
